# Source: patent US20250352520A1, “USE OF DEXPRAMIPEXOLE FOR THE TREATMENT OF EOSINOPHILIC COPD” (Areteia Therapeutics, Inc., priority 2024, published 2025)
# Details: Week 8; <50% AEC reduction at Week 16
structure (smiles),measurement,value
"CCCN[C@@H]1CCc2nc(N)sc2C1 [Dexpramipexole, (6R)-2-amino-4,5,6,7-tetrahydro-6-(propylamino)benzothiazole]","Pre-BD FEF25-75 % change from baseline, Max",58%
same,"Pre-BD FEF25-75 % change from baseline, Mean ± SD",30.4 ± 31.72%
same,"Pre-BD FEF25-75 % change from baseline, Median",38.4%
same,"Pre-BD FEF25-75 % change from baseline, Min",−14%
same,"Pre-BD FEF25-75 % change from baseline, Q1",8%
same,"Pre-BD FEF25-75 % change from baseline, Q3",53%
same,"Pre-BD FEF25-75 Observed, Max",2050 mL/s
same,"Pre-BD FEF25-75 Observed, Mean ± SD",875.0 ± 790.55 mL/s
same,"Pre-BD FEF25-75 Observed, Median",535.0 mL/s
same,"Pre-BD FEF25-75 Observed, Min",380 mL/s
same,"Pre-BD FEF25-75 Observed, Q1",410 mL/s
same,"Pre-BD FEF25-75 Observed, Q3",1340 mL/s
same,"Pre-BD FEF25-75 change from baseline, Max",660 mL/s
same,"Pre-BD FEF25-75 change from baseline, Mean ± SD",200.0 ± 324.14 mL/s
same,"Pre-BD FEF25-75 change from baseline, Median",120.0 mL/s
same,"Pre-BD FEF25-75 change from baseline, Min",-100 mL/s
same,"Pre-BD FEF25-75 change from baseline, Q1",0 mL/s
same,"Pre-BD FEF25-75 change from baseline, Q3",400 mL/s
same,"Pre-BD FEV1 % change from baseline, Max",41%
same,"Pre-BD FEV1 % change from baseline, Mean ± SD",16.0 ± 19.59%
same,"Pre-BD FEV1 % change from baseline, Median",13.2%
same,"Pre-BD FEV1 % change from baseline, Min",−4%
same,"Pre-BD FEV1 % change from baseline, Q1",1%
same,"Pre-BD FEV1 % change from baseline, Q3",31%
same,"Pre-BD FEV1 Observed, Max",2940 mL
same,"Pre-BD FEV1 Observed, Mean ± SD",1755.0 ± 860.79 mL
same,"Pre-BD FEV1 Observed, Median",1600.0 mL
same,"Pre-BD FEV1 Observed, Min",880 mL
same,"Pre-BD FEV1 Observed, Q1",1215 mL
same,"Pre-BD FEV1 Observed, Q3",2295 mL
same,"Pre-BD FEV1 change from baseline, Max",860 mL
same,"Pre-BD FEV1 change from baseline, Mean ± SD",282.5 ± 410.23 mL
same,"Pre-BD FEV1 change from baseline, Median",165.0 mL
same,"Pre-BD FEV1 change from baseline, Min",-60 mL
same,"Pre-BD FEV1 change from baseline, Q1",-5 mL
same,"Pre-BD FEV1 change from baseline, Q3",570 mL
same,"Pre-BD FVC % change from baseline, Max",17%
same,"Pre-BD FVC % change from baseline, Mean ± SD",4.5 ± 11.70%
same,"Pre-BD FVC % change from baseline, Median",5.1%
same,"Pre-BD FVC % change from baseline, Min",−9%
same,"Pre-BD FVC % change from baseline, Q1",−5%
same,"Pre-BD FVC % change from baseline, Q3",14%
same,"Pre-BD FVC Observed, Max",3990 mL
same,"Pre-BD FVC Observed, Mean ± SD",3162.5 ± 792.10 mL
same,"Pre-BD FVC Observed, Median",3175.0 mL
same,"Pre-BD FVC Observed, Min",2310 mL
same,"Pre-BD FVC Observed, Q1",2500 mL
same,"Pre-BD FVC Observed, Q3",3825 mL
same,"Pre-BD FVC change from baseline, Max",540 mL
same,"Pre-BD FVC change from baseline, Mean ± SD",167.5 ± 353.02 mL
same,"Pre-BD FVC change from baseline, Median",185.0 mL
same,"Pre-BD FVC change from baseline, Min",-240 mL
same,"Pre-BD FVC change from baseline, Q1",-120 mL
same,"Pre-BD FVC change from baseline, Q3",455 mL
same,"Pre-BD Peak Flow % change from baseline, Max",500%
same,"Pre-BD Peak Flow % change from baseline, Mean ± SD",136.0 ± 243.51%
same,"Pre-BD Peak Flow % change from baseline, Median",28.5%
same,"Pre-BD Peak Flow % change from baseline, Min",−13%
same,"Pre-BD Peak Flow % change from baseline, Q1",4%
same,"Pre-BD Peak Flow % change from baseline, Q3",268%
same,"Pre-BD Peak Flow Observed, Max",319 L/min
same,"Pre-BD Peak Flow Observed, Mean ± SD",227.0 ± 70.68 L/min
same,"Pre-BD Peak Flow Observed, Median",217.5 L/min
same,"Pre-BD Peak Flow Observed, Min",154 L/min
same,"Pre-BD Peak Flow Observed, Q1",175 L/min
same,"Pre-BD Peak Flow Observed, Q3",280 L/min
same,"Pre-BD Peak Flow change from baseline, Max",200 L/min
same,"Pre-BD Peak Flow change from baseline, Mean ± SD",70.5 ± 97.89 L/min
same,"Pre-BD Peak Flow change from baseline, Median",55.5 L/min
same,"Pre-BD Peak Flow change from baseline, Min",-29 L/min
same,"Pre-BD Peak Flow change from baseline, Q1",-1 L/min
same,"Pre-BD Peak Flow change from baseline, Q3",142 L/min
